Data as given in patent publication US20260191192A1, “ANTIMICROBIAL COMPOSITIONS COMPRISING PELARGONIC ACID” (LANXESS Corporation, priority 2023, published 2026).

How the values were obtained:
[1] = test system: mixed bacterial inoculum (Table 6); test: Challenge test (preservative efficacy), mixed bacterial inoculum, full pool (Table 6); assay type: cell-based
Protocol: (§1) The preservative activity in representative rinse-off and leave-on formulations was evaluated using a modification of the Personal Care Products Council (PCPC—formerly the Cosmetic, Toiletry and Fragrance Association) protocol (Machtiger, et al. 2001. Determination of the Efficacy of Preservation of Non-Eye Area Water Miscible Cosmetic and Toiletry Formulations: Collaborative Study. J of AOAC International. 84:1, 101-109).
(§2) This evaluation was conducted using a four week, two or three-cycle (i.e., two-cycle for personal care and three-cycle for home care applications) microbial preservative efficacy test (i.e., challenge test) at 25° C. to determine the preservative efficacy of each treatment. Phenoxyethanol, benzyl alcohol and pelargonic acid were tested alone and in various combinations. The pelargonic acid used in the testing was purchased from Sigma-Aldrich. Combinations of phenoxyethanol or benzyl alcohol with benchmark multifunctional booster compounds were also tested for comparison. The preservative and booster ingredients were dosed and mixed thoroughly at room temperature into various formulations, specifically different personal care formulations including a lotion (leave-on, Table 1), a micellar water (rinse-off, Table 2), and a body wash formulation (rinse-off, Table 3) and different home care formulations including a manual dishwashing formulation (Table 4) and a liquid laundry detergent formulation (Table 5). […] Carbomers are a commonly used synthetic rheological modifier in personal care products. The formulation below was made by heating the aqueous (A) and oil (B) phases separately to 75-80° C. The oil phase was then poured into the aqueous phase and mixed by a homogenizer at approximately 45° C. The formed oil-in-water emulsion was cooled to room temperature. Triethanolamine and/or diluted sodium hydroxide was used to adjust the final pH to 6.3 or 6.5 (as indicated in the examples below).
(§3) After dosing, the samples were divided into two separate five gram aliquots. One aliquot was inoculated with 50 μl of a diluted bacterial pool, and the second aliquot was inoculated with 50 μl of a diluted fungal pool as described below. Unpreserved product samples were included as a growth control.
(§4) For personal care products, a mixed bacterial inoculum was prepared using 24-hour cultures of the test bacteria (Table 6) grown in trypticase soy broth (TSB). For home care products, a mixed bacterial inoculum was prepared using 24-hour cultures of the test bacteria either from Table 6 (full pool) or Table 7 (simplified pool) grown in trypticase soy broth (TSB). Details are disclosed in the home care examples below. Equal volumes of the bacterial test strains were combined and diluted one to ten in phosphate buffer to obtain an inoculum of approximately 5×10^7 to 5×10^8 colony forming units per ml (cfu/ml). The test samples were inoculated with 1% of the mixed bacterial inoculum. For both personal care and home care products, a mixed fungal inoculum was prepared using cell suspensions of the yeast Candida albicans ATCC #10231 and the mold Aspergillus brasiliensis ATCC #16404 in phosphate buffer. Equal volumes of the fungal test strains were combined and diluted one to ten with phosphate buffer to obtain an inoculum of approximately 5×10^6 to 5×10^7 cfu/ml. The test samples were inoculated with 1% of the mixed fungal inoculum.
(§5) For personal care products, the samples were subjected to two microbial challenges at time zero and inoculated a second time after seven days. For home care products, the samples were subjected to three microbial challenges at time zero and inoculated a second and third time after seven and fourteen days, respectively. The number of microorganisms added to each sample was determined by a standard Most Probable Number (MPN) determination in Trypticase Soy Broth (TSB) for bacteria and Potato Dextrose Broth (PDB) for fungi. Samples were incubated at 25° C. for the test duration of four weeks.

[2] = test system: mixed bacterial inoculum for home care (Table 7); test: Challenge test (preservative efficacy), mixed bacterial inoculum, simplified pool (Table 7); assay type: cell-based, Pseudomonas aeruginosa, Staphylococcus aureus; conditions: dosed 1.0 wt %
Protocol: as §1, §2, §3, §4, §5

[3] = test system: mixed fungal inoculum: Candida albicans ATCC #10231 and Aspergillus brasiliensis ATCC #16404; test: Challenge test (preservative efficacy), mixed fungal inoculum; assay type: cell-based
Protocol: as §1, §2, §3, §4, §5

[4] = test system: bacteria (Table 6 pool) and fungi; test: Challenge test, overall result (full bacteria pool and fungi); assay type: cell-based
Protocol: as §1, §2, §3, §4, §5

[5] = test system: bacteria (Table 7 pool) and fungi; test: Challenge test, overall result (simplified bacteria pool and fungi); assay type: cell-based; conditions: dosed 1.0 wt %
Protocol: as §1, §2, §3, §4, §5

[6] = ZenBio Cupric Ion Chelating (CIC) Assay; assay type: physicochemical; conditions: calculated from a EDTA calibration curve, Pelargonic Acid at 775 μM
Protocol: The chelation property of the pelargonic acid was measured by using the ZenBio Cupric Ion Chelating (CIC) Assay (Cat #AOX-16). The assay measured the capacity of the pelargonic acid to chelate free cupric ions in solution, thereby inhibiting Cu(II) binding to pyrocatechol violet (PV) for generating a highly colored complex. The absorbance of the Cupric-PV complex was measured at a wavelength of 632 nm. The cupric ion chelating activity was determined as the percent of total PV over the Cu(II) binding. Ethylenediaminetetraacetic acid (EDTA), a well-known chelating agent, was used as a positive control. A series of EDTA with 7 different concentrations from 0 to 1000 μM were prepared and their corresponding absorbance measured and used as the calibration curve (Cupric ion chelating (%) vs. EDTA concentration). Percent cupric ion chelating was determined following the following calculations and Equation 1. The background absorbance value by averaging the absorbance values of the three background wells (no CuSO4 or sample). The average background absorbance was then subtracted from all the sample absorbance values. The maximal absorbance value (Absmax) was determined by averaging the absorbance values of the three wells containing CuSO4, PV and assay buffer. Abstest in Equation 1 is the absorbance of the test sample.
The calibration curve (Cupric ion chelating (%) vs. EDTA concentration) was fit by using a polynomial curve after log 10 transforming the concentrations (R2>0.98).

[7] = body wash, pH 6.5, Example 1E, dosed 0.5 wt %
[8] = lotion with carbomer, pH 6.3, Example 1A, dosed 0.5 wt %
[9] = lotion with carbomer, pH 6.3, Example 1A, dosed 1.0 wt %
[10] = lotion with carbomer, pH 6.5, Example 1I, total dosing 0.8 wt %
[11] = liquid laundry detergent, pH 7.5, Example 1H, dosed 1.0 wt %
[12] = micellar water, pH 6.0, Example 1B, dosed 0.5 wt %
[13] = micellar water, pH 6.0, Example 1C, dosed 0.3 wt %

SMILES: CCCCCCCCC(=O)O [Pelargonic Acid, nonanoic acid]
- Bacteria growth rating Result [1, 7]: Fail (growth rating score caused by bacteria of 2 or more at days 21-28 of the testing period)
- Bacteria growth rating Result ([1]; liquid laundry detergent, pH 7.5, full bacteria pool, Example 1H, dosed 1.0 wt %): Fail (growth rating score caused by bacteria of 2 or more at days 21-28 of the testing period)
- Bacteria growth rating Result [1, 8]: Fail (growth rating score caused by bacteria of 2 or more at days 21-28 of the testing period)
- Bacteria growth rating Result [1, 9]: Fail (growth rating score caused by bacteria of 2 or more at days 21-28 of the testing period)
- Bacteria growth rating Result ([1]; lotion with carbomer, pH 6.3, Example 1D, dosed 0.8 wt %): Fail (growth rating score caused by bacteria of 2 or more at days 21-28 of the testing period)
- Bacteria growth rating Result [1, 10]: Fail (growth rating score caused by bacteria of 2 or more at days 21-28 of the testing period)
- Bacteria growth rating Result ([1]; micellar water, pH 6.0, bacteria inoculation ~10^7 cfu/ml, Example 1B, dosed 0.5 wt %): Fail (growth rating score caused by bacteria of 2 or more at days 21-28 of the testing period)
- Bacteria growth rating Result ([1]; micellar water, pH 6.0, bacteria inoculation ~10^8 cfu/ml, Example 1C, dosed 0.3 wt %): Fail (growth rating score caused by bacteria of 2 or more at days 21-28 of the testing period)
- Bacteria growth rating Result ([2]; liquid laundry detergent, pH 7.5, simplified bacteria pool, Example 1G): Fail (growth rating score caused by bacteria of 2 or more at days 21-28 of the testing period)
- Bacteria growth rating Result ([2]; manual dishwashing formulation, pH 5.5, simplified bacteria pool, Example 1F): Fail (growth rating score caused by bacteria of 2 or more at days 21-28 of the testing period)
- Fungi growth rating Result [3, 7]: Pass (growth rating score caused by fungi of 2 or less at days 21-28 of the testing period)
- Fungi growth rating Result ([3]; liquid laundry detergent, pH 7.5, Example 1G, dosed 1.0 wt %): Fail (growth rating score caused by fungi of more than 2 at days 21-28 of the testing period)
- Fungi growth rating Result [3, 11]: Fail (growth rating score caused by fungi of more than 2 at days 21-28 of the testing period)
- Fungi growth rating Result [3, 8]: Fail (growth rating score caused by fungi of more than 2 at days 21-28 of the testing period)
- Fungi growth rating Result [3, 9]: Fail (growth rating score caused by fungi of more than 2 at days 21-28 of the testing period)
- Fungi growth rating Result [3, 10]: Fail (growth rating score caused by fungi of more than 2 at days 21-28 of the testing period)
- Fungi growth rating Result ([3]; manual dishwashing formulation, pH 5.5, Example 1F, dosed 1.0 wt %): Fail (growth rating score caused by fungi of more than 2 at days 21-28 of the testing period)
- Fungi growth rating Result [3, 12]: Fail (growth rating score caused by fungi of more than 2 at days 21-28 of the testing period)
- Fungi growth rating Result [3, 13]: Fail (growth rating score caused by fungi of more than 2 at days 21-28 of the testing period)
- Overall Result [4, 7]: Fail
- Overall Result [4, 11]: Fail
- Overall Result [4, 8]: Fail
- Overall Result [4, 9]: Fail
- Overall Result [4, 10]: Fail
- Overall Result [4, 12]: Fail
- Overall Result [4, 13]: Fail
- Overall Result ([5]; liquid laundry detergent, pH 7.5, Example 1G): Fail
- Overall Result ([5]; manual dishwashing formulation, pH 5.5, Example 1F): Fail
- Calculated EDTA equivalent [6]: 667 µM
